The values that follow come from patent US11439707B2, “Hypocrellin derivative substituted both in a peri-position and in 2-position by amino, preparation method, and application thereof” (priority 2017, dated 2022).

The nature of data set [1]: singlet oxygen efficiency test, reference rose bengal. The data set is classed as physicochemical.
Data set [2] can be described thus: absorption spectrum (maximum absorption wavelength, molar extinction coefficient). The class given is physicochemical.

In data set [1], `COc1c2c3c4c(c(NC(CO)C(=O)O)c(=O)c5c(NC(CO)C(=O)O)cc(OC)c(c6c(OC)cc(O)c(c1=O)c63)c54)C=C(C)C2C(C)=O` (stereo not drawn) [HB-23c] had a singlet oxygen yield of 22%. Also, in data set [2], the maximum absorption wavelength stood at 622 nm and the molar extinction coefficient is 22,000 M^−1cm^−1.
The corresponding values for `COc1c2c3c4c(c(NCCC(=O)O)c(=O)c5c(O)cc(OC)c(c6c(OC)cc(NCCC(=O)O)c(c1=O)c63)c54)C=C(C)C2C(C)=O` (stereo not drawn) [HB-10d] are 32%, 621 nm and 32,500 M^−1cm^−1.
The corresponding values for `COc1c(O)c2c(=O)cc(OC)c3c4c(OC)cc(=O)c5c(NC(CC(=O)O)C(=O)O)c(NC(CC(=O)O)C(=O)O)c6c(c(c1C(C(C)=O)C(C)=C6)c23)c54` (stereo not drawn) [HB-27a] are 18%, 621 nm and 20,500 M^−1cm^−1.
On to `COc1c2c3c4c(c(NCCCCCC(=O)O)c(=O)c5c(O)cc(OC)c(c6c(OC)cc(NCCCCCC(=O)O)c(c1=O)c63)c54)C=C(C)C2` [HC-9d], for which the singlet oxygen yield in data set [1] was 26%. In data set [2], the maximum absorption wavelength came to 624 nm and the molar extinction coefficient is 25,000 M^−1cm^−1.
The corresponding values for `COc1c2c3c4c(c(NCCCCS(=O)(=O)O)c(=O)c5c(O)cc(OC)c(c6c(OC)cc(NCCCCS(=O)(=O)O)c(c1=O)c63)c54)C=C(C)C2C(C)=O` (stereo not drawn) [HB-11d-C4-SO3H] are 32%, 626 nm and 30,500 M^−1cm^−1.
In data set [1], `COCCOCCOCCOCCOCCOCCOC(=O)CCCCCNc1c2c3c4c(c(OC)c(=O)c5c(O)cc(OC)c(c6c(OC)cc(NCCCCCC(=O)OCCOCCOCCOCCOCCOCCOC)c(c1=O)c63)c54)CC(C)=C2` [HC-9c-PEG6] showed a singlet oxygen yield of 36%. Moreover, in data set [2], the maximum absorption wavelength worked out at 628 nm and the molar extinction coefficient was 33,000 M^−1cm^−1.
The matching figures for `COc1c2c3c4c(c(NCCOCCO)c(=O)c5c(O)cc(OC)c(c6c(OC)cc(NCCOCCO)c(c1=O)c63)c54)C=C(C)C2C(C)=O` (stereo not drawn) [HB-1d]: 35%, 622 nm and 30,000 M^−1cm^−1.
For `COc1c(NCc2ccccn2)c2c(=O)cc(OC)c3c4c(OC)cc(=O)c5c(O)c(NCc6ccccn6)c6c(c(c1C(C(C)=O)C(C)=C6)c23)c54` (stereo not drawn) [HB-38b], the singlet oxygen yield in data set [1] was determined as 16%. For the same molecule, in data set [2], the maximum absorption wavelength worked out at 621 nm and the molar extinction coefficient is on record as 18,500 M^−1cm^−1.
The matching figures for `COc1c(NCCCCS(=O)(=O)O)c2c(=O)cc(OC)c3c4c(OC)cc(=O)c5c(O)c(NCCCCS(=O)(=O)O)c6c(c(c1C(C(C)=O)C(C)=C6)c23)c54` (stereo not drawn) [HB-11b-C4-SO3H]: 34%, 620 nm and 30,500 M^−1cm^−1.
In turn, `COc1c2c3c4c(c(NC5(CO)CC5)c(=O)c5c(NC6(CO)CC6)cc(OC)c(c6c(OC)cc(O)c(c1=O)c63)c54)C=C(C)C2C(C)=O` (stereo not drawn) [HB-35c] showed a singlet oxygen yield in data set [1] of 34%. For the same molecule, in data set [2], the maximum absorption wavelength stood at 619 nm and the molar extinction coefficient is on record as 32,500 M^−1cm^−1.
The corresponding values for `COc1c(NCC2CCC(C(=O)O)CC2)c2c(=O)cc(OC)c3c4c(OC)cc(=O)c5c(O)c(NCC6CCC(C(=O)O)CC6)c6c(c(c1C(C(C)=O)C(C)=C6)c23)c54` (stereo not drawn) [HB-13b] are 26%, 621 nm and 28,000 M^−1cm^−1.
The matching figures for `COc1c(O)c2c(=O)cc(OC)c3c4c(OC)cc(=O)c5c(NCS(=O)(=O)O)c(NCCCS(=O)(=O)O)c6c(c(c1CC(C)=C6)c23)c54` [HC-45a]: 18%, 613 nm and 21,000 M^−1cm^−1.
The molecule `COc1c(O)c2c(=O)cc(OC)c3c4c(OC)cc(=O)c5c(NCC6CCC(C(=O)OCC[N+](C)(C)C)CC6)c(NCC6CCC(C(=O)OCC[N+](C)(C)C)CC6)c6c(c(c1CC(C)=C6)c23)c54` (stereo not drawn) [HC-13a-C2-N^+] displayed a singlet oxygen yield in data set [1] of 30%. Besides, in data set [2], the maximum absorption wavelength came out at 622 nm and the molar extinction coefficient was 30,500 M^−1cm^−1.
The corresponding values for `COCCOCCOCCOCCOCCOCCOCCOCCOCCOCCOCCOCCOCCC(=O)OC1CCC(Nc2c3c4c5c(c(OC)c(=O)c6c(O)cc(OC)c(c7c(OC)cc(NC8CCC(OC(=O)CCOCCOCCOCCOCCOCCOCCOCCOCCOCCOCCOCCOCCOC)C8)c(c2=O)c74)c65)C(C(C)=O)C(C)=C3)C1` (stereo not drawn) [HB-20c-PEG12] are 34%, 632 nm and 32,500 M^−1cm^−1.
For `COc1c(NCC(=O)O)c2c(=O)cc(OC)c3c4c(OC)cc(=O)c5c(O)c(NCC(=O)O)c6c(c(c1CC(C)=C6)c23)c54` [HC-7b], the singlet oxygen yield in data set [1] came out at 25%. Also, in data set [2], the maximum absorption wavelength was determined as 622 nm and the molar extinction coefficient is recorded as 28,500 M^−1cm^−1.
The matching figures for `COCCOCCOCCOCCOCCOCCOC(=O)C1CCCC(Nc2c3c4c5c(c(OC)c(=O)c6c(NC7CCCC(C(=O)OCCOCCOCCOCCOCCOCCOC)C7)cc(OC)c(c7c(OC)cc(O)c(c2=O)c74)c65)C(C(C)=O)C(C)=C3)C1` (stereo not drawn) [HB-15d-PEG6]: 32%, 630 nm and 32,500 M^−1cm^−1.
The corresponding values for `COc1c2c3c4c(c(NCc5cccc[n+]5C)c(=O)c5c(O)cc(OC)c(c6c(OC)cc(NCc7cccc[n+]7C)c(c1=O)c63)c54)C=C(C)C2C(C)=O` (stereo not drawn) [HB-38d-N^+] are 20%, 626 nm and 21,500 M^−1cm^−1.
In data set [1], `COCCOCCOCCOCCOCCOCCOC(=O)CCCNc1c2c3c4c(c(OC)c(=O)c5c(NCCCC(=O)OCCOCCOCCOCCOCCOCCOC)cc(OC)c(c6c(OC)cc(O)c(c1=O)c63)c54)C(C(C)=O)C(C)=C2` (stereo not drawn) [HB-8d-PEG6] returned a singlet oxygen yield of 32%. Besides, in data set [2], the maximum absorption wavelength turned out to be 620 nm and the molar extinction coefficient was 31,500 M^−1cm^−1.
The corresponding values for `COCCOCCOCCOCCOCCOCCOC(=O)CCCNc1c(O)c2c(=O)cc(OC)c3c4c(OC)cc(=O)c5c(NCCCC(=O)OCCOCCOCCOCCOCCOCCOC)c(OC)c6c(c(c1C=C(C)C6C(C)=O)c23)c54` (stereo not drawn) [HB-8b-PEG6] are 30%, 622 nm and 30,000 M^−1cm^−1.
The matching figures for `CCNNc1c(NNCC)c2c(=O)cc(OC)c3c4c(OC)cc(=O)c5c(O)c(OC)c6c(c(c1C=C(C)C6C(C)=O)c23)c54` (stereo not drawn) [HB-36a]: 32%, 621 nm and 30,500 M^−1cm^−1.
The matching figures for `COc1c2c3c4c(c(NO)c(=O)c5c(NO)cc(OC)c(c6c(OC)cc(O)c(c1=O)c63)c54)C=C(C)C2` [HC-37c]: 36%, 624 nm and 34,000 M^−1cm^−1.
`COc1c(NCCCCCC(=O)O)c2c(=O)cc(OC)c3c4c(OC)cc(=O)c5c(O)c(NCCCCCC(=O)O)c6c(c(c1CC(C)=C6)c23)c54` [HC-9b] had a singlet oxygen yield in data set [1] of 24%. Further, in data set [2], the maximum absorption wavelength is 622 nm and the molar extinction coefficient is reported as 27,500 M^−1cm^−1.
The corresponding values for `COCCOCCC(=O)OCCOCCNc1c(NCCOCCOC(=O)CCOCCOC)c2c(=O)cc(OC)c3c4c(OC)cc(=O)c5c(O)c(OC)c6c(c(c1C=C(C)C6C(C)=O)c23)c54` (stereo not drawn) [HB-1a-PEG1] are 35%, 625 nm and 31,000 M^−1cm^−1.
The matching figures for `COCCOCCOCCOCCOCCOCCOCCN1CCC(CNc2c(O)c3c(=O)cc(OC)c4c5c(OC)cc(=O)c6c(NCC7CCN(CCOCCOCCOCCOCCOCCOCCOC)CC7)c(OC)c7c(c(c2C=C(C)C7C(C)=O)c34)c65)CC1` (stereo not drawn) [HB-32b-PEG6]: 38%, 622 nm and 31,000 M^−1cm^−1.
In turn, `COc1c2c3c4c(c(NCCOCCO)c(=O)c5c(O)cc(OC)c(c6c(OC)cc(NCCOCCO)c(c1=O)c63)c54)C=C(C)C2` [HC-1d] gave a singlet oxygen yield in data set [1] of 32%. In data set [2], the maximum absorption wavelength was 626 nm and the molar extinction coefficient is given as 28,500 M^−1cm^−1.
The corresponding values for `COc1c(O)c2c(=O)cc(OC)c3c4c(OC)cc(=O)c5c(NC6CCC(O)C6)c(NC6CCC(O)C6)c6c(c(c1C(C(C)=O)C(C)=C6)c23)c54` (stereo not drawn) [HB-20a] are 20%, 624 nm and 24,500 M^−1cm^−1.
The corresponding values for `COc1c(O)c2c(=O)cc(OC)c3c4c(OC)c(Br)c(=O)c5c(NCCNCCOCCO)c(NCCNCCOCCO)c6c(c(c1C(C(C)=O)C(C)=C6)c23)c54` (stereo not drawn) [HB-5a-Br-PEG1] are 28%, 622 nm and 30,500 M^−1cm^−1.
Regarding `COc1c2c3c4c(c(NC5CCCC(C(=O)O)C5)c(=O)c5c(NC6CCCC(C(=O)O)C6)cc(OC)c(c6c(OC)cc(O)c(c1=O)c63)c54)C=C(C)C2C(C)=O` (stereo not drawn) [HB-15c], in data set [1], the singlet oxygen yield worked out at 26%. For the same molecule, in data set [2], the maximum absorption wavelength was found to be 621 nm and the molar extinction coefficient is listed as 28,000 M^−1cm^−1.
The matching figures for `COCCOCCOCCOCCOCCOCCOCCOCCOCCOCCOCCOCCOCCC(=O)OCCNc1c2c3c4c(c(OC)c(=O)c5c(O)cc(OC)c(c6c(OC)cc(NCCOC(=O)CCOCCOCCOCCOCCOCCOCCOCCOCCOCCOCCOCCOCCOC)c(c1=O)c63)c54)CC(C)=C2` [HC-2c-PEG12]: 34%, 630 nm and 32,500 M^−1cm^−1.
Turning to `COc1c2c3c4c(c(NC5CCC(C(=O)O)C5)c(=O)c5c(O)cc(OC)c(c6c(OC)cc(NC7CCC(C(=O)O)C7)c(c1=O)c63)c54)C=C(C)C2C(C)=O` (stereo not drawn) [HB-19d], the singlet oxygen yield in data set [1] came out at 20%. For the same molecule, in data set [2], the maximum absorption wavelength is reported as 625 nm and the molar extinction coefficient is reported as 24,000 M^−1cm^−1.
